One compound from ChEMBL document CHEMBL5729111, “CD73 inhibitors and therapeutic uses thereof” (2022) can be followed below.

The target in this assay is 5'-nucleotidase (Homo sapiens, UniProt P21589). Briefly: Enzyme Activity In Vitro Assay: I. Experimental Materials and Equipment1. Malachite green phosphate detection kit (R & D Systems, Cat #, DY996)2. Recombinant human 5′-nucleotidase (CD73) (R & D Systems, Cat #, 5795-EN)3. HEPES buffer (Gibco, Cat #, 15630-080)4. CMP (Sigma, Cat #, C1006)5. DMSO (Fisher Chemical, Cat #, D128-1)6. NaCl 5M (Boston Bioproducts, Cat #, BM-244)7.384-well plate (Fisher, Cat #, 5795-EN)8. TECAN plate reader (TECAN)II. Experimental ProcedureCompounds are first dissolved in DMSO to 10 mM as a stock solution. When determining the IC50 of the compound, prepare 3-fold serial dilutions with a highest concentration of 125 μM for a total of 12 concentration points and ensure each dilution containing equal amount of DMSO. In each well of 384-well plate, 0.34 nM of recombinant human 5′-nucleotidase (CD73) was pre-incubated at 37° C. for 2 hours with the compounds tested in assay buffer containing 20 mM HEPES buffer (pH 7.4), 137 mM NaCl, 0.001% Tween 20. The final reaction volume of the reaction in each well was 12 μL. The highest concentration of compound was 125 μM and the DMSO concentration was 1.25%. After pre-incubation, 3 μL of CMP dissolved in assay buffer was added to each reaction. The final CMP concentration was 45 μM. The reaction was incubated at 37° C. for 15 minutes. Then 3 μL of Malachite Green Reagent A was added to each reaction. […].
Chain of 5'-nucleotidase (P21589 whole entry): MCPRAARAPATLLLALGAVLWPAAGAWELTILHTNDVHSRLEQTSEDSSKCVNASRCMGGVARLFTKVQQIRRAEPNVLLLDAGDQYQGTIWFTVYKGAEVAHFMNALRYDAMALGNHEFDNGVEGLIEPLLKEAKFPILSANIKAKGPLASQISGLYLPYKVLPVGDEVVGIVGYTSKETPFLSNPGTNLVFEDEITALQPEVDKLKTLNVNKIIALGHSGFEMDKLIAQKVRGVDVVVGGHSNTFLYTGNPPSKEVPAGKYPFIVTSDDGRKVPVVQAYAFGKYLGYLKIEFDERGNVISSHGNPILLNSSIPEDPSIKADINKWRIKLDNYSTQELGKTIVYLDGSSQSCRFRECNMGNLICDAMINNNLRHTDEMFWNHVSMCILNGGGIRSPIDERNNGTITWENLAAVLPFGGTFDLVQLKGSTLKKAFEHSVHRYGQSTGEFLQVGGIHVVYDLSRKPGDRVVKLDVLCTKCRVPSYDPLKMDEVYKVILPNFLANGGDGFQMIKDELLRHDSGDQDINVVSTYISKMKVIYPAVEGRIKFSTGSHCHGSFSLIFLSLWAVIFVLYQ

Regarding `CC(OC(=O)C(C)(C)C)OP(=O)(COC[C@H]1O[C@@H](n2ncc3c(N4CC5(CCc6ccccc65)C4)nc(Cl)nc32)[C@H](O)[C@@H]1O)OC(C)OC(=O)C(C)(C)C` (stereo partly specified), the concentration for half-maximal inhibition (IC50) was determined as 270 nM.
